Laboratory results from patent publication US20200268702A1, “METHODS OF TREATING […]” (Amarin Pharmaceuticals Ireland Limited, priority 2013, published 2020).

Legend:
[1] = system: subjects with Age-Associated Memory Impairment; assay: Safety and tolerability (adverse events), 6-week AAMI study; format: in vivo, human
Procedure: Ninety-four subjects were randomized into one of six groups: 1 g E-EPA daily (n=23), 2 g E-EPA daily (n=24), 4 g E-EPA daily (n=24), 1 g placebo daily (n=7), 2 g placebo daily (n=8), and 4 g placebo daily (n=8).
All randomized subjects that received at least 1 dose of study medication were included in the Safety Population.
Safety evaluations were based on the safety population. Safety and tolerability were assessed in terms of AEs, vital signs, 12-lead ECG, clinical laboratory data, medical history, and study drug compliance. Safety and tolerability data were presented by treatment group.

[2] = system: patients with fasting triglyceride levels ≥200 mg/dl and <500 mg/dl despite statin therapy; assay: ANCHOR study: 12-week placebo-controlled study of >96% E-EPA on statin therapy, metabolic syndrome subgroup; format: in vivo, human
Procedure: A multi-center, placebo-controlled, randomized, double-blind, 12-week study was performed to evaluate the efficacy and safety of >96% E-EPA in patients with fasting triglyceride levels ≥200 mg/dl and <500 mg/dl despite statin therapy (the mean of two qualifying entry values needed to be ≥185 mg/dl and at least one of the values needed to be ≥200 mg/dl). The primary objective of the study was to determine the efficacy of >96% E-EPA 2 g daily and 4 g daily, compared to placebo, in lowering fasting TG levels in patients with high risk for cardiovascular disease and with fasting TG levels ≥200 mg/dL and <500 mg/dL, despite treatment to LDL-C goal on statin therapy.
The population for this study was men and women >18 years of age with a body mass index ≤45 kg/m^2 with fasting TG levels greater than or equal to 200 mg/dl and less than 500 mg/dl and on a stable does of statin therapy (with or without ezetimibe). The statin was atorvostatin, rosuvastatin or simvastatin. The dose of statin must have been stable for ≥4 weeks prior to the LDL-C/TG baseline qualifying measurement for randomization. The statin dose was optimized such that the patients are at their LDL-C goal at the LDL-C/TG baseline qualifying measurements. The same statin at the same dose was continued until the study ended.
Approximately 702 patients were randomized at approximately 80 centers in the U.S. The study was a 18- to 20-week, Phase 3, multi-center study consisting of 2 study periods: (1) A 6- to 8-week screening period that included a diet and lifestyle stabilization, a non-statin lipid-altering treatment washout, and an LDL-C and TG qualifying period and (2) A 12-week, double-blind, randomized, placebo-controlled treatment period.
After confirmation of qualifying fasting LDL-C and TG values, eligible patients entered a 12-week, randomized, double-blind treatment period. At Visit 4 (Week 0), patients were randomly assigned to 1 of the following treatment groups: • >96% E-EPA 2 g daily, • >96% E-EPA 4 g daily, or • Placebo.
>96% E-EPA was provided in 1 g liquid-filled, oblong, gelatin capsules. The matching placebo capsule was filled with light liquid paraffin and contained 0 g of >96% E-EPA. >96% E-EPA capsules were to be taken with food (i.e. with or at the end of a meal).
During the double-blind treatment period, patients were to take 2 capsules (>96% E-EPA or matching placebo) in the morning and 2 capsules in the evening for a total of 4 capsules per day. • Patients in the >96% E-EPA 2 g/day treatment group received 1>96% E-EPA 1 g capsule and 1 matching placebo capsule in the morning and in the evening. • Patients in the >96% E-EPA 4 g/day treatment group received 2>96% E-EPA 1 g capsules in the morning and evening.
The primary efficacy variable for the double-blind treatment period was percent change in TG from baseline to Week 12 endpoint. […]

[3] = 4 g/day, week 12, listed as IPE

## CC/C=C\C/C=C\C/C=C\C/C=C\C/C=C\CCCC(=O)OCC [AMR101, ethyl eicosapentaenoate]
[1]; 1 g
  nausea Probably Related to the study drug: One
[1]; 1 g cohort
  nausea Possibly Related to the study drug, subjects: two
[1]; 2 g cohort
  nausea Possibly Related to the study drug, subjects: one
[1]; 2 g treatment group
  SAE reported: One
  subjects discontinued due to TEAEs: 2 subjects
[1]; 2 g, one subject
  Serious Adverse Event (worsening epigastric chest pain), relation to study drug: unrelated to the study drug
[1]; 4 g
  diarrhea Probably Related to the study drug: Another subject
[1]; 4 g cohort
  nausea Possibly Related to the study drug, subjects: two
[1]; all groups
  TEAEs Definitely Related to the study drug: No TEAEs were Definitely Related
  deaths during the study: no deaths
[1]; ethyl-EPA treatment groups (1 g, 2 g, 4 g), placebo groups 34 events
  treatment emergent AEs (TEAEs) reported: 105 events
[2]; 2 g/day, week 12
  Apo B, Change from Baseline, %: 3.3%
  Apo B, End of Treatment, median (IQR): 95.0 (23.00) mg/dL
  Apo B, Median % Change From Baseline vs Placebo: −2.6%
  HDL-C, Change from Baseline, %: 2.2%
  HDL-C, End of Treatment, median (IQR): 38.0 (12.00) mg/dL
  HDL-C, Median % Change From Baseline vs Placebo: −1.4%
  LDL-C, Change from Baseline, %: 2.5%
  LDL-C, End of Treatment, median (IQR): 87.0 (28.00) mg/dL
  LDL-C, Median % Change From Baseline vs Placebo: −2.4%
  Non-HDL-C, Change from Baseline, %: 2.7%
  Non-HDL-C, End of Treatment, median (IQR): 134.0 (44.00) mg/dL
  Non-HDL-C, Median % Change From Baseline vs Placebo: −4.4%
  TG, Change from Baseline, %: −5.8%
  TG, End of Treatment, median (IQR): 246.0 (117.00) mg/dL
  TG, Median % Change From Baseline vs Placebo: −10.3%
  hsCRP, Change from Baseline, %: 8.4%
  hsCRP, End of Treatment, median (IQR): 2.5 (3.35) mg/L
  hsCRP, Median % Change From Baseline vs Placebo: −7.6%
[2]; 4 g/day, week 12
  Apo B, Change from Baseline, %: −2.2%
  Apo B, End of Treatment, median (IQR): 89.0 (26.00) mg/dL
  HDL-C, Change from Baseline, %: 0.0%
  HDL-C, End of Treatment, median (IQR): 36.0 (12.00) mg/dL
  HDL-C, Median % Change From Baseline vs Placebo: −4.0%
  LDL-C, Change from Baseline, %: 2.1%
  LDL-C, End of Treatment, median (IQR): 83.0 (31.00) mg/dL
  Non-HDL-C, Change from Baseline, %: −5.3%
  Non-HDL-C, End of Treatment, median (IQR): 121.0 (37.00) mg/dL
  TG, Change from Baseline, %: −17.4%
  TG, End of Treatment, median (IQR): 221.0 (93.50) mg/dL
  hsCRP, Change from Baseline, %: −3.4%
  hsCRP, End of Treatment, median (IQR): 2.0 (3.00) mg/L
[2]; [3]
  Apo B, Median % Change From Baseline vs Placebo: −8.8%
  LDL-C, Median % Change From Baseline vs Placebo: −5.2%
  Non-HDL-C, Median % Change From Baseline vs Placebo: −13.5%
  TG, Median % Change From Baseline vs Placebo: −21.7%
  hsCRP, Median % Change From Baseline vs Placebo: −23.0%
